Data reported in US11957696B2 (Propella Therapeutics, Inc., priority 2021, dated 2024).
Where two headings read alike, the source gives them in different places.

Legend:
LH = LH analysis (serum) in 13-week study; format: in vivo, cynomolgus monkeys; parameters: LH: unit not given here
Description: Sample Collection for LH Analysis (Serum): Blood samples (approximately 2.5 mL) were collected from all animals via the femoral vein for determination of the serum concentrations of LH. The animals were fasted prior to blood collection except one deviation.

CYP17A1 = target: T1, CYP17A1 (Macaca fascicularis, UniProt Q2XVA1); test: PD (progesterone, cortisol, dihydrotestosterone, testosterone levels) in chemically castrated monkeys; format: in vivo, cynomolgus monkeys
T1 construct: endogenous in cells; host or cells: live male cynomolgus monkeys (in vivo; steroidogenic tissues)
T1 sequence (Q2XVA1 1-508): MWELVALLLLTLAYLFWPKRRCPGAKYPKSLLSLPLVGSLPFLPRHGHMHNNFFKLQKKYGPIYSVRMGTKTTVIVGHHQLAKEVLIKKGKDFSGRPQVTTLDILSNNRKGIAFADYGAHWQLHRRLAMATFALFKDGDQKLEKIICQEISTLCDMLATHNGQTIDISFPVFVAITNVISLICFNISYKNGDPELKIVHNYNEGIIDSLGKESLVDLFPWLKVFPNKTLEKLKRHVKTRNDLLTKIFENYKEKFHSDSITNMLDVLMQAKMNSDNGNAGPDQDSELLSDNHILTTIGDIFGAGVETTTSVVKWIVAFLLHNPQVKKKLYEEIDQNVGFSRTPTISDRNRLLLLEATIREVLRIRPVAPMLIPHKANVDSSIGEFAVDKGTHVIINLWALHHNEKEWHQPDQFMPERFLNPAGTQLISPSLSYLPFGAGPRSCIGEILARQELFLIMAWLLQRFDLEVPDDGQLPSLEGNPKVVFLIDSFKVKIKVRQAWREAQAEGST
Description: The effects of administering dexamethasone and methylprednisolone acetate according to the schedule of this Example were also shown in FIGS. 5A, 5B, 5C, and 5D.

[1] = Abiraterone plasma exposure from abiraterone decanoate formulations with and without benzyl benzoate; format: in vivo; conditions: corn oil 70%, benzyl alcohol 10%, benzyl benzoate 20% compared with corn oil 90%, same dose, monkeys
Description: In some embodiments, the abiraterone prodrug formulation can comprise a combination of benzyl alcohol and benzyl benzoate as cosolvents. In some embodiments, the benzyl alcohol can be present in an amount of about 0-20% (e.g., 0-15% or 0-10%, such as about 10%) of the solvent, and benzyl benzoate can be present in an amount of about 0-50% (e.g., 0-35% or 0-30%, such as about 20%) of the solvent, wherein the balance of the solvent can be any one or more of the pharmaceutically acceptable oil described herein, such as corn oil, castor oil, sesame oil, peanut oil, cottonseed oil, and/or Miglyol 812, etc.

[2] = cynomolgus monkey, in vivo
Description: Test system/animals: gonadally intact, sexually mature, male cynomolgus monkeys. Administration of Test Materials: The vehicle control and test article were administered once every 2 weeks for 13 weeks (Days 1, 15, 29, 43, 57, and 71) during the study via intramuscular injection. […] The dose levels were 20, 60, or 200 mg/kg/dose and administered at a dose volume of 0.10, 0.15, and 0.25 mL/kg/site, respectively. The control group received the vehicle control in the same manner as the treated groups at a dose volume of 0.25 mL/kg/site.
The vehicle control and test article formulations were administered via bolus intramuscular injection into the epaxial muscles of the lumbar back. Animals at 0 and 200 mg/kg/dose were dosed in 4 dose sites, animals at 20 mg/kg/dose were dosed in 1 dose site, and animals at 60 mg/kg/dose were dosed in 2 dose sites. The needle (23-gauge, ⅝-inch) was inserted perpendicular to the skin surface. The location of the injection site was documented for each dose. In addition, each injection site was marked with a single large dot at the exact site of needle insertion, for purposes of erythema and swelling evaluation. Each injection site was remarked at least once weekly and prior to necropsy.
Individual doses were based on the most recent body weights. Formulations were warmed at 35° C. (±5° C.) for at least 1 hour prior to dosing.
The following parameters and endpoints were evaluated in this study: mortality, clinical signs, body weights, body weight gains, ophthalmology and electrocardiographic examinations, clinical pathology parameters (hematology, coagulation, clinical chemistry, and urinalysis), LH and ACTH analyses, toxicokinetic parameters, gross necropsy findings, organ weights, and histopathologic examinations. Statistical analyses were performed using Group Pair-wise Comparisons (general ANOVA).

ACTH = ACTH analysis (plasma) in 13-week study; format: in vivo, cynomolgus monkeys
Description: Sample Collection for ACTH Analysis (Plasma): Blood samples (approximately 2.5 mL) were collected from all animals via the femoral vein for determination of the plasma concentrations of ACTH. The animals were fasted prior to blood collection except one deviation.

[3] = PK of single IM abiraterone decanoate in chemically castrated monkeys (abiraterone plasma); format: in vivo, cynomolgus monkeys; conditions: single IM 10 mg/kg

`CCCCCCCCCC(=O)O[C@H]1CC[C@@]2(C)C(=CC[C@@H]3[C@@H]2CC[C@]2(C)C(c4cccnc4)=CC[C@@H]32)C1` [Abiraterone Decanoate, abiraterone decanoate] showed an LH (LH; 20 mg/kg, N 4, Day 8) of 1.67, an LH (LH; 20 mg/kg, N 4, Day 15) of 1.67 and an LH (LH; 20 mg/kg, N 4, Day 78) of 5.67. The LH (LH; 20 mg/kg, N 4, Day 85) was 3.12, the LH (LH; 60 mg/kg, N 4, Day 8) was 2.78 and the LH (LH; 60 mg/kg, N 4, Day 15) was 2.73. For the same compound, the LH (LH; 60 mg/kg, N 4, Day 78) was 7.12, the LH (LH; 60 mg/kg, N 4, Day 85) was 7.07 and the LH (LH; 200 mg/kg, N 6, Day 8) was 1.98. For the same compound, the LH (LH; 200 mg/kg, N 6, Day 15) was 2.33, the LH (LH; 200 mg/kg, N 6, Day 78) was 5.04 and the LH (LH; 200 mg/kg, N 6, Day 85) was 5.27. For the same compound, the LH concentrations (LH; following abiraterone decanoate administration) was “no clear effects”, the “PD effects relative to abiraterone plasma concentration” value (CYP17A1; 10 mg/kg dosing group) was “prolonged PD effects were observed even after abiraterone plasma concentration dropped below 1 ng/mL” and the “progesterone, cortisol, dihydrotestosterone and testosterone levels” value (CYP17A1; single dose IM, all three doses) was “sustained increase of progesterone level and reduction of cortisol, dihydrotestosterone, and testosterone level”. For the same compound, the “duration of CYP17A1 inhibition” value (CYP17A1; single dose IM, all three doses (10, 30, 100 mg/kg)) was at least 70 days, the abiraterone plasma exposure [1] was “much higher abiraterone plasma exposure” and the adrenal gland changes [2] was “minimal to moderate cortical hypertrophy”. The clinical observations [2] was “swelling and/or nodules at the injection sites”, the “findings in the lung” value [2] was “minimal to moderate granulomatous inflammation” and the “ophthalmology findings, qualitative or quantitative ECG parameters” value [2] was “no effect”. The “test article-related changes in the epididymis” value [2] was “mild to severe reduced luminal sperm and/or minimal to mild increased germ cell debris”, the “test article-related changes in the prostate gland” value [2] was “mild to moderate prostate gland atrophy” and the “test article-related changes in the seminal vesicle” value [2] was “minimal to mild seminal vesicle atrophy”. For the same compound, the “test article-related changes in the testes” value [2] was “minimal to moderate germ cell depletion and minimal to mild Leydig cell hypertrophy”, the “test article-related changes in the thymus” value [2] was “minimal to mild increased lymphocytes” and the “test article-related findings in the mammary gland” value [2] was “minimal to mild lobular and/or duct hyperplasia”. For the same compound, the “microscopic findings at terminal necropsy” value ([2]; 20 mg/kg) was “test article-related microscopic findings”, the albumin concentration ([2]; 20 mg/kg/day) was “minimal decreases” and the “microscopic findings at terminal necropsy” value ([2]; 60 mg/kg) was “test article-related microscopic findings”. For the same compound, the “mean corpuscular volume (MCV) and mean corpuscular hemoglobin (MCH)” value ([2]; 200 mg/kg) was “minimal decreases”, the “red cell distribution width (RDW)” value ([2]; 200 mg/kg) was “minimal increase” and the “highest non-severely toxic dose” value ([2]; male, 13 weeks) was 60 mg/kg/dose. For the same compound, the “ACTH fold change of treated group mean relative to pretreatment (Day −1) mean” value (ACTH; 20 mg/kg/dose, Day 8) was 1.72×, the “ACTH fold change of treated group mean relative to pretreatment (Day −1) mean” value (ACTH; 20 mg/kg/dose, Day 15) was 2.63× and the “ACTH fold change of treated group mean relative to pretreatment (Day −1) mean” value (ACTH; 20 mg/kg/dose, Day 78) was 2.30×*. For the same compound, the “ACTH fold change of treated group mean relative to pretreatment (Day −1) mean” value (ACTH; 20 mg/kg/dose, Day 85) was 1.89×*, the “ACTH fold change of treated group mean relative to pretreatment (Day −1) mean” value (ACTH; 60 mg/kg/dose, Day 8) was 2.55×* and the “ACTH fold change of treated group mean relative to pretreatment (Day −1) mean” value (ACTH; 60 mg/kg/dose, Day 15) was 2.35×*. For the same compound, the “ACTH fold change of treated group mean relative to pretreatment (Day −1) mean” value (ACTH; 60 mg/kg/dose, Day 78) was 1.33×*, the “ACTH fold change of treated group mean relative to pretreatment (Day −1) mean” value (ACTH; 60 mg/kg/dose, Day 85) was 1.36×* and the “ACTH fold change of treated group mean relative to pretreatment (Day −1) mean” value (ACTH; 200 mg/kg/dose, Day 8) was 4.90×*. For the same compound, the “ACTH fold change of treated group mean relative to pretreatment (Day −1) mean” value (ACTH; 200 mg/kg/dose, Day 15) was 5.14×*, the “ACTH fold change of treated group mean relative to pretreatment (Day −1) mean” value (ACTH; 200 mg/kg/dose, Day 78) was 4.65×* and the “ACTH fold change of treated group mean relative to pretreatment (Day −1) mean” value (ACTH; 200 mg/kg/dose, Day 85) was 4.66×*. For the same compound, the ACTH concentrations (ACTH; males at ≥20 mg/kg/dose) was “increases” and the “abiraterone in the plasma at Day 70” value [3] was “measurable”.
